# Tests used:
# urease = details: no coating material; urea 100 mg N kg^−1 soil; 24 hours of incubation
# Nitrobacter = Nitrobacter population in soil; type: cell-based; details: no coating material; urea 100 mg N kg^−1 soil
# Procedure: (§1) Representative soil samples were analyzed for different forms of N i.e., urea N, NH4 and NO3-N at regular intervals for two weeks to assess the nitrification inhibitory properties of the materials in question following the standard procedures (Douglas and Bremner, 1970, Soil Sci. Soc. Am. Proc. 34:859-862). Another set of experiment was conducted to assay the total bacterial population, total actinomycetes population and nitrifying bacteria viz., Nitrosomons and Nitrobacber (Alexander and Clark, 1965, In. Method of Soil Analysis Part II (CA Black Eds) Am. Soc .Agron. Inc. Wisconsin, U.S.A.; KenKnight and Torariko. 1973, Agrokhimiya 7:3)
# Actinomycetes = test: Total actinomycetes population in soil; type: cell-based; details: no coating material; urea 100 mg N kg^−1 soil
# Procedure: as §1
# Nitrosomonus = Nitrosomonus population in soil; type: cell-based; details: no coating material; urea 100 mg N kg^−1 soil
# Procedure: as §1
# Total bacteria = test: Total bacterial population in soil; type: cell-based; details: no coating material; urea 100 mg N kg^−1 soil
# Procedure: as §1
# [1] = system: menthol mint (Mentha arvensis); test: Greenhouse pot culture experiment: herb yield, N accumulation, apparent N recovery; type: in vivo; details: urea N 100 mg kg^−1, coating materials added at 1.00% w/w (Nil for urea alone)
# Procedure: To confirm the results of the incubation a pot culture experiment was conducted subsequently taking menthol mint (Mentha arvensis) as the test crops. Eight kg soil (<2 mm) were put in plastic container. The same fertilizers coating treatments as were in incubation experiment were imposed in this experiment, except that instead of two levels of coating materials, these were applied at 1.00% on v/w basis. The experiment was laid in a completely randomized design with four replications. The soils were analyzed for mineral forms of N at regular intervals. In addition, the plant samples were analyzed for N accumulation and apparent N recovery. [formula]
structure (smiles),measurement,setting,value
"NC(N)=O [Urea alone, Urea]",Urease activity,urease,66.5 μg NH4—N liberated/g soil/hour
same,Nitrobacter,Nitrobacter,"14.00 × 103, g^−1 soil"
same,Actinomycetes,Actinomycetes,"5.66 × 104, g^−1 soil"
same,Nitrosomonus,Nitrosomonus,"3.30 × 103, g^−1 soil"
same,Total bacteria,Total bacteria,"4.00 × 105, g^−1 soil"
same,Apparent recovery (apparent N recovery),[1],29.1%
same,Herb yield,[1],42.8 g pot^−1
same,N accumulation,[1],450 mg pot^−1
same,Apparent recovery (apparent N recovery),[1]; listed as urea alone,29%
